Results from PMC5218480 (PLoS ONE, 2017).

Tested on: MV-4-11 cells
Test: Gene expression microarray analysis (Affymetrix PrimeView) and GSEA
Format: cell-based, human
Set-up: RFU PODN (11730768_x_at) / Fold change /veh PODN (11730768_x_at) / RFU LINC00158 (11744669_a_at) / Fold change /veh LINC00158 (11744669_a_at) / RFU DUSP10 (11751237_a_at) / Fold change /veh DUSP10 (11751237_a_at) / RFU ID3 (11757404_x_at) / Fold change /veh ID3 (11757404_x_at) / RFU PLEKHG5 (11737974_s_at) / Fold change /veh PLEKHG5 (11737974_s_at) / RFU LRRC4B (11730491_at) / Fold change /veh LRRC4B (11730491_at) / RFU GIMAP4 (11747438_a_at) / Fold change /veh GIMAP4 (11747438_a_at) / RFU KRT8 (11758183_x_at) / Fold change /veh KRT8 (11758183_x_at) / RFU CNN1 (11734310_a_at) / Fold change /veh CNN1 (11734310_a_at) / RFU VPS37D (11726825_at) / Fold change /veh VPS37D (11726825_at) / RFU C10orf10 (11716522_x_at) / Fold change /veh C10orf10 (11716522_x_at) / RFU KIR2DL2 /// KIR2DL4 /// KIR2DL5A /// KIR2DL5B /// KIR2DS1 /// KIR2DS2 /// KIR2DS3 /// KIR2DS4 /// KIR3DL3 /// KIR3DL3 /// KIR3DS1 (11738374_at) / Fold change /veh KIR2DL2 /// KIR2DL4 /// KIR2DL5A /// KIR2DL5B /// KIR2DS1 /// KIR2DS2 /// KIR2DS3 /// KIR2DS4 /// KIR3DL3 /// KIR3DL3 /// KIR3DS1 (11738374_at) / RFU C1QL1 (11718748_at) / Fold change /veh C1QL1 (11718748_at) / RFU TMPRSS4 (11747572_a_at) / Fold change /veh TMPRSS4 (11747572_a_at) / RFU HAMP (11756126_x_at) / Fold change /veh HAMP (11756126_x_at) / RFU RNFT2 (11725882_a_at) / Fold change /veh RNFT2 (11725882_a_at) / RFU NR4A2 (11747474_a_at) / Fold change /veh NR4A2 (11747474_a_at) / RFU ABCC12 (11746883_a_at) / Fold change /veh ABCC12 (11746883_a_at) / RFU TMEM136 (11760407_x_at) / Fold change /veh TMEM136 (11760407_x_at) / RFU CLDN22 /// WWC2 (11732394_at) / Fold change /veh CLDN22 /// WWC2 (11732394_at) / RFU HLA-DPB1 (11760878_x_at) / Fold change /veh HLA-DPB1 (11760878_x_at) / RFU SPINT1 (11716480_a_at) / Fold change /veh SPINT1 (11716480_a_at) / RFU GAP43 (11754022_s_at) / Fold change /veh GAP43 (11754022_s_at) / RFU A4GNT (11735810_at) / Fold change /veh A4GNT (11735810_at) / RFU PRB3 (11715151_x_at) / Fold change /veh PRB3 (11715151_x_at) / RFU TUBB4B (11761932_at) / Fold change /veh TUBB4B (11761932_at) / RFU CAPN14 (11732068_a_at) / Fold change /veh CAPN14 (11732068_a_at) / RFU TMCC2 (11721928_a_at) / Fold change /veh TMCC2 (11721928_a_at) / RFU IRGQ (11745062_a_at) / Fold change /veh IRGQ (11745062_a_at) / RFU FAM174B (11720279_a_at) / Fold change /veh FAM174B (11720279_a_at) / RFU TMPRSS4 (11748680_a_at) / Fold change /veh TMPRSS4 (11748680_a_at) / RFU FAM212B (11763350_a_at) / Fold change /veh FAM212B (11763350_a_at) / RFU PLEKHG5 (11743358_a_at) / Fold change /veh PLEKHG5 (11743358_a_at) / RFU ZSCAN30 (11745921_a_at) / Fold change /veh ZSCAN30 (11745921_a_at) / RFU CMKLR1 (11741424_a_at) / Fold change /veh CMKLR1 (11741424_a_at) / RFU LOC101060620 /// MAPK8IP1 (11723275_at) / Fold change /veh LOC101060620 /// MAPK8IP1 (11723275_at) / RFU SPTSSB (11747773_x_at) / Fold change /veh SPTSSB (11747773_x_at) / RFU PRSS12 (11739890_at) / Fold change /veh PRSS12 (11739890_at) / RFU BIN1 (11741810_x_at) / Fold change /veh BIN1 (11741810_x_at) / RFU WNT11 (11732464_a_at) / Fold change /veh WNT11 (11732464_a_at) / RFU C10orf10 (11716521_a_at) / Fold change /veh C10orf10 (11716521_a_at) / RFU C5orf56 (11738089_at) / Fold change /veh C5orf56 (11738089_at) / RFU CYB561 (11721691_x_at) / Fold change /veh CYB561 (11721691_x_at) / RFU ANKRD19P (11752326_a_at) / Fold change /veh ANKRD19P (11752326_a_at) / RFU OR2T12 /// OR2T33 /// OR2T8 (11738714_s_at) / Fold change /veh OR2T12 /// OR2T33 /// OR2T8 (11738714_s_at) / RFU VCAN (11748164_a_at) / Fold change /veh VCAN (11748164_a_at) / RFU JSRP1 (11732532_at) / Fold change /veh JSRP1 (11732532_at) / RFU KRTAP10-11 (11738290_x_at) / Fold change /veh KRTAP10-11 (11738290_x_at) / RFU MYO3A (11730013_a_at) / Fold change /veh MYO3A (11730013_a_at) / RFU EBF3 (11725865_a_at) / Fold change /veh EBF3 (11725865_a_at) / RFU CAMK2N1 (11719241_x_at) / Fold change /veh CAMK2N1 (11719241_x_at) / RFU C5orf56 (11738088_a_at) / Fold change /veh C5orf56 (11738088_a_at) / RFU OLFML3 (11715873_a_at) / Fold change /veh OLFML3 (11715873_a_at) / RFU LOC100653217 /// NTM (11731650_a_at) / Fold change /veh LOC100653217 /// NTM (11731650_a_at) / RFU MAPK11 (11762145_a_at) / Fold change /veh MAPK11 (11762145_a_at) / RFU FIZ1 (11724087_x_at) / Fold change /veh FIZ1 (11724087_x_at) / RFU OASL (11726364_x_at) / Fold change /veh OASL (11726364_x_at) / RFU SOX15 (11748057_x_at) / Fold change /veh SOX15 (11748057_x_at) / RFU CD79A (11719716_a_at) / Fold change /veh CD79A (11719716_a_at) / RFU HIST1H1D (11736915_at) / Fold change /veh HIST1H1D (11736915_at) / RFU CASKIN2 (11723855_a_at) / Fold change /veh CASKIN2 (11723855_a_at) / RFU LOC730098 (11760151_x_at) / Fold change /veh LOC730098 (11760151_x_at) / RFU OR4N2 (11742367_at) / Fold change /veh OR4N2 (11742367_at) / RFU PRRT2 (11749266_a_at) / Fold change /veh PRRT2 (11749266_a_at) / RFU SNX32 (11753110_a_at) / Fold change /veh SNX32 (11753110_a_at) / RFU CDHR5 (11726645_a_at) / Fold change /veh CDHR5 (11726645_a_at) / RFU RCAN1 (11760418_a_at) / Fold change /veh RCAN1 (11760418_a_at) / RFU FAM167A (11723789_a_at) / Fold change /veh FAM167A (11723789_a_at) / RFU FAM26E (11764081_at) / Fold change /veh FAM26E (11764081_at) / RFU ISYNA1 (11749810_s_at) / Fold change /veh ISYNA1 (11749810_s_at) / RFU ACY1 (11761880_at) / Fold change /veh ACY1 (11761880_at) / RFU 11764098_at / Fold change /veh 11764098_at / RFU SAMD14 (11745864_x_at) / Fold change /veh SAMD14 (11745864_x_at) / RFU NPB (11741838_a_at) / Fold change /veh NPB (11741838_a_at) / RFU TMPRSS6 (11731388_a_at) / Fold change /veh TMPRSS6 (11731388_a_at) / RFU KRTAP10-2 (11738614_at) / Fold change /veh KRTAP10-2 (11738614_at) / RFU ARHGAP8 /// PRR5-ARHGAP8 (11727945_x_at) / Fold change /veh ARHGAP8 /// PRR5-ARHGAP8 (11727945_x_at) / RFU KRTAP5-7 /// NADSYN1 (11734609_at) / Fold change /veh KRTAP5-7 /// NADSYN1 (11734609_at) / RFU RASL12 (11751679_a_at) / Fold change /veh RASL12 (11751679_a_at) / RFU CDKN2B (11736163_a_at) / Fold change /veh CDKN2B (11736163_a_at) / RFU PRF1 (11729649_at) / Fold change /veh PRF1 (11729649_at) / RFU, ZNF638 /// ZNF638-IT1 / Fold change vs veh, ZNF638 /// ZNF638-IT1 / RFU, PANK3 / Fold change vs veh, PANK3 / RFU, SH3YL1 / Fold change vs veh, SH3YL1 / RFU, ZEB2 / Fold change vs veh, ZEB2 / RFU, NRIP1 / Fold change vs veh, NRIP1 / RFU, PTTG1IP / Fold change vs veh, PTTG1IP / RFU, CAPN2 / Fold change vs veh, CAPN2 / RFU, MED14 / Fold change vs veh, MED14 / RFU, SNORA58 / Fold change vs veh, SNORA58 / RFU, C1orf63 / Fold change vs veh, C1orf63 / RFU, LRRFIP1 / Fold change vs veh, LRRFIP1 / RFU, NDUFAF7 / Fold change vs veh, NDUFAF7 / RFU, SLC12A2 / Fold change vs veh, SLC12A2 / RFU, IBTK / Fold change vs veh, IBTK / RFU, ESF1 / Fold change vs veh, ESF1 / Fold change vs veh, TMEM50B / RFU, TAOK1 / Fold change vs veh, TAOK1 / RFU, ACBD3 / Fold change vs veh, ACBD3 / RFU, TMA16 / Fold change vs veh, TMA16 / RFU, RWDD3 / Fold change vs veh, RWDD3 / RFU, BCAT1 / Fold change vs veh, BCAT1 / RFU, EDEM3 / Fold change vs veh, EDEM3 / RFU, TMEM33 / Fold change vs veh, TMEM33 / RFU, WDR75 / Fold change vs veh, WDR75 / RFU, AHCTF1 / Fold change vs veh, AHCTF1 / RFU, TFRC / Fold change vs veh, TFRC / RFU, ZDHHC17 / Fold change vs veh, ZDHHC17 / RFU, NOM1 / Fold change vs veh, NOM1 / RFU, ARL8B / Fold change vs veh, ARL8B / RFU, ZBTB11 / Fold change vs veh, ZBTB11 / RFU, TAMM41 / Fold change vs veh, TAMM41 / RFU, KIAA1704 /// LOC100996395 / Fold change vs veh, KIAA1704 /// LOC100996395 / RFU, ING1 / Fold change vs veh, ING1 / RFU, TRMT61B / Fold change vs veh, TRMT61B / RFU, FUBP3 / Fold change vs veh, FUBP3 / RFU, TP53 / Fold change vs veh, TP53 / RFU, TNKS2 / Fold change vs veh, TNKS2 / RFU, ZFP14 / Fold change vs veh, ZFP14 / RFU, ACTR2 / Fold change vs veh, ACTR2 / RFU, PPP3R1 / Fold change vs veh, PPP3R1 / RFU, PIK3R1 / Fold change vs veh, PIK3R1 / RFU, HNRNPA1 / Fold change vs veh, HNRNPA1 / RFU, RNF170 / Fold change vs veh, RNF170 / RFU, ZNF28 / Fold change vs veh, ZNF28 / RFU, RNGTT / Fold change vs veh, RNGTT / RFU, OGT / Fold change vs veh, OGT / RFU, BRD1 / Fold change vs veh, BRD1 / RFU, MARS / Fold change vs veh, MARS / RFU, ZNF655 / Fold change vs veh, ZNF655 / RFU, FAHD1 / Fold change vs veh, FAHD1 / RFU, BDP1 / Fold change vs veh, BDP1 / RFU, LRRCC1 / Fold change vs veh, LRRCC1 / RFU, ARID1A / Fold change vs veh, ARID1A / RFU, ZNF146 / Fold change vs veh, ZNF146 / RFU, ZNF330 / Fold change vs veh, ZNF330 / RFU, GPN3 / Fold change vs veh, GPN3 / RFU, C9orf123 / Fold change vs veh, C9orf123 / RFU, N4BP2L2 / Fold change vs veh, N4BP2L2 / RFU, ARFIP1 / Fold change vs veh, ARFIP1 / RFU, FAM179B / Fold change vs veh, FAM179B / RFU, BCL10 / Fold change vs veh, BCL10 / RFU, UHRF1BP1L / Fold change vs veh, UHRF1BP1L / RFU, BET1 / Fold change vs veh, BET1 / RFU, CNOT2 / Fold change vs veh, CNOT2 / RFU, ZNF268 / Fold change vs veh, ZNF268 / Fold change vs veh, ZNF507 / RFU, DGCR2 / Fold change vs veh, DGCR2 / RFU, WDSUB1 / Fold change vs veh, WDSUB1 / Fold change vs veh, HSP90B1 /// MIR3652 / RFU, ADSS / Fold change vs veh, ADSS / RFU, GK / Fold change vs veh, GK / RFU, ZNF148 / Fold change vs veh, ZNF148 / RFU, TAF9 / Fold change vs veh, TAF9 / RFU, SLC1A5 / Fold change vs veh, SLC1A5 / RFU, SLMO2 / Fold change vs veh, SLMO2 / RFU, ABCC4 / Fold change vs veh, ABCC4 / RFU, LOC101060439 /// RAP1B / Fold change vs veh, LOC101060439 /// RAP1B / RFU, RFX7 / Fold change vs veh, RFX7 / RFU, GTPBP10 / Fold change vs veh, GTPBP10 / RFU, CNEP1R1 / Fold change vs veh, CNEP1R1 / RFU, BIVM-ERCC5 /// ERCC5 / Fold change vs veh, BIVM-ERCC5 /// ERCC5 / RFU, ILF3 / Fold change vs veh, ILF3 / RFU 11762660_at / Fold change /veh 11762660_at / RFU VCAN (11757783_s_at) / Fold change /veh VCAN (11757783_s_at) / RFU DDX43 (11728927_at) / Fold change /veh DDX43 (11728927_at) / RFU KRT8 (11758188_x_at) / Fold change /veh KRT8 (11758188_x_at) / RFU NKD1 (11759106_at) / Fold change /veh NKD1 (11759106_at) / RFU SRD5A1 (11742802_a_at) / Fold change /veh SRD5A1 (11742802_a_at) / RFU TPSAB1 /// TPSB2 (11721975_s_at) / Fold change /veh TPSAB1 /// TPSB2 (11721975_s_at) / RFU GSTM3 (11746129_a_at) / Fold change /veh GSTM3 (11746129_a_at) / RFU IL23R (11737362_x_at) / Fold change /veh IL23R (11737362_x_at) / RFU TMEM51 (11727254_a_at) / Fold change /veh TMEM51 (11727254_a_at) / RFU PIWIL2 (11732686_x_at) / Fold change /veh PIWIL2 (11732686_x_at) / RFU ORM1 (11744905_x_at) / Fold change /veh ORM1 (11744905_x_at) / RFU CCDC152 (11743942_at) / Fold change /veh CCDC152 (11743942_at) / RFU ECM1 (11717891_a_at) / Fold change /veh ECM1 (11717891_a_at) / RFU IL23R (11748794_a_at) / Fold change /veh IL23R (11748794_a_at) / RFU TNFAIP8L3 (11732012_x_at) / Fold change /veh TNFAIP8L3 (11732012_x_at) / RFU MBOAT4 (11741988_at) / Fold change /veh MBOAT4 (11741988_at) / RFU 11764193_at / Fold change /veh 11764193_at / RFU TMEM53 (11763286_at) / Fold change /veh TMEM53 (11763286_at) / RFU MAGEB2 (11727129_at) / Fold change /veh MAGEB2 (11727129_at) / RFU TMEM200A (11744735_a_at) / Fold change /veh TMEM200A (11744735_a_at) / RFU CCDC152 (11751479_a_at) / Fold change /veh CCDC152 (11751479_a_at) / RFU FAM211A (11726209_a_at) / Fold change /veh FAM211A (11726209_a_at) / RFU RGS16 (11746705_a_at) / Fold change /veh RGS16 (11746705_a_at) / RFU VCAN (11755009_s_at) / Fold change /veh VCAN (11755009_s_at) / RFU RHOB (11743442_s_at) / Fold change /veh RHOB (11743442_s_at) / RFU RGS16 (11720943_a_at) / Fold change /veh RGS16 (11720943_a_at) / RFU RGS16 (11720944_at) / Fold change /veh RGS16 (11720944_at) / RFU, VPS4B / Fold change vs veh, VPS4B / RFU, CREB1 / Fold change vs veh, CREB1 / RFU, DNAJC13 / Fold change vs veh, DNAJC13 / RFU, GNAQ / Fold change vs veh, GNAQ / RFU, CDK5R1 / Fold change vs veh, CDK5R1 / RFU, ZRANB3 / Fold change vs veh, ZRANB3 / RFU, CUL4A / Fold change vs veh, CUL4A / RFU, CCNY / Fold change vs veh, CCNY / RFU, UFL1 / Fold change vs veh, UFL1 / RFU, COG3 / Fold change vs veh, COG3 / RFU, DIAPH2 / Fold change vs veh, DIAPH2 / RFU, SKA2 / Fold change vs veh, SKA2 / RFU, AFF3 / Fold change vs veh, AFF3 / RFU, LMF1 / Fold change vs veh, LMF1 / RFU, IPO11 / Fold change vs veh, IPO11 / RFU, DFFB / Fold change vs veh, DFFB / RFU, FOXP1 / Fold change vs veh, FOXP1 / RFU, CARD8 / Fold change vs veh, CARD8 / RFU, STRN3 / Fold change vs veh, STRN3 / RFU, ADK / Fold change vs veh, ADK / RFU, RASSF2 / Fold change vs veh, RASSF2 / RFU, WIPF1 / Fold change vs veh, WIPF1 / RFU, LARP1B / Fold change vs veh, LARP1B / RFU, RASA1 / Fold change vs veh, RASA1 / RFU, RB1 / Fold change vs veh, RB1 / RFU, PPFIA1 / Fold change vs veh, PPFIA1 / RFU, MAT2A / Fold change vs veh, MAT2A / RFU, CCT5 / Fold change vs veh, CCT5 / RFU, WDR92 / Fold change vs veh, WDR92 / RFU, CUX1 / Fold change vs veh, CUX1 / RFU, TTC7A / Fold change vs veh, TTC7A / RFU, TMEM135 / Fold change vs veh, TMEM135 / RFU, DEPTOR / Fold change vs veh, DEPTOR / RFU, CPM / Fold change vs veh, CPM / RFU, DNAJB6 / Fold change vs veh, DNAJB6 / RFU, CACNA2D3 / Fold change vs veh, CACNA2D3 / RFU, DTX4 / Fold change vs veh, DTX4 / RFU, TFCP2 / Fold change vs veh, TFCP2 / RFU, GMCL1 /// GMCL1P1 / Fold change vs veh, GMCL1 /// GMCL1P1 / RFU, AEBP2 / Fold change vs veh, AEBP2 / RFU, SNHG1 /// SNORD22 /// SNORD25 /// SNORD26 /// SNORD27 /// SNORD28 /// SNORD29 /// SNORD31 / Fold change vs veh, SNHG1 /// SNORD22 /// SNORD25 /// SNORD26 /// SNORD27 /// SNORD28 /// SNORD29 /// SNORD31 / Fold change (Aza/veh), C12orf56 (ProbeSet 11735607_a_at) / Fold change (ACY-1035/veh), C12orf56 (ProbeSet 11735607_a_at) / Fold change (Aza/veh), FGFR1OP (ProbeSet 11751329_s_at) / Fold change (ACY-1035/veh), FGFR1OP (ProbeSet 11751329_s_at) / Fold change (Aza/veh), VPS36 (ProbeSet 11739960_a_at) / Fold change (ACY-1035/veh), VPS36 (ProbeSet 11739960_a_at) / RFU SYPL1 (11715823_x_at) / Fold change /veh SYPL1 (11715823_x_at) / RFU IGFBP7 (11715501_s_at) / Fold change /veh IGFBP7 (11715501_s_at) / RFU REEP3 (11722064_at) / Fold change /veh REEP3 (11722064_at) / RFU IGLL1 (11728026_x_at) / Fold change /veh IGLL1 (11728026_x_at): dose or concentration left out as unconfirmed
Conditions: MV-4-11 cells, 48 hours

Nc1ccc(-c2cccs2)cc1NC(=O)c1ccc2c(c1)cc(C1CC1)n2CCN1CCOCC1 [ACY-1035]
Fold change /veh DUSP10 (11751237_a_at): 1.17
